Data on 58 compounds can be found in PubChem BioAssay AID2633 (Broad Institute, 2010).

Activity calls are given as the source filed them. The rule behind the calls is not given here. Where only a bound is given, the exact number is not on record here.

This assay has as its system DRD oncogenic fibroblast cytotoxicity, fluorescence viability. Put plainly: killing of non-viral transformed DRD fibroblasts – cell-based, fluorescence viability readout, dose response (AID 2633).

By EC50 is commonly meant the concentration that produces a half-maximal response.

Take `COc1ccc(OC)c(Nc2nc(N)nc(CCl)n2)c1`: the EC50 is 1520 nM.
For `COC(=O)C[C@](O)(CCCC(C)(C)O)C(=O)O[C@@H]1C(OC)=C[C@]23CCCN2CCc2cc4c(cc2[C@H]13)OCO4`, the EC50 is 4.64 nM.
Take `CC(C)c1onc(C(=O)N2CCN(C(c3ccccc3)c3ccccc3)CC2)c1[N+](=O)[O-]`: the half-maximal effective concentration (EC50) is 617 nM.
For `Cc1cccc(OCC(=O)Nc2ccc(C(=O)NCc3cccnc3)cc2)c1`, the EC50 is > 6670 nM (inactive).
`CC[C@@]1(O)C(=O)OCc2c1cc1n(c2=O)Cc2cc3c(NC(=O)CN)cccc3nc2-1`: the EC50 was 4610 nM.
Regarding `CCc1ccc(/C=C2/SC(=S)N(CCC(=O)NCCCN3CCOCC3)C2=O)cc1`, the concentration giving a half-maximal response (EC50) was 5320 nM.
In the case of `COc1ccc(Cc2nc(-c3ccc(NC(=O)c4cccnc4)cc3)no2)cc1`, the EC50 is > 6670 nM (inactive).
On to `CC1=CC(=O)C=C(C)C1=NOc1ccccc1[N+](=O)[O-]`, for which the EC50 is > 6670 nM (inactive).
For `O=C(COc1ccc(Cl)cc1)Nc1ccc(C(=O)NCc2cccnc2)cc1`, the EC50 is > 6670 nM (inactive).
As for `Cc1cccnc1Nc1nc(-c2ccccn2)cs1`, the concentration giving a half-maximal response (EC50) was 428 nM.
Consider `CCN1/C(=C\C=C\C2=[N+](CC)c3ccccc3C2(C)C)C(C)(C)c2ccccc21`, for which the EC50 was 249 nM.
In the case of `COc1ccc(S(=O)(=O)N2CCOCC2)cc1NC(=O)CCNC(=O)c1ccc(Br)cc1`, the EC50 was > 6670 nM (inactive).
With `COc1ccc(CN(CCC(c2ccccc2)c2ccc(OC(C)C)cc2)C(=O)CCl)cc1OC` (stereo not drawn) the figure was 1480 nM.
Regarding `Cc1onc(C(=O)N2CCN(C(c3ccccc3)c3ccccc3)CC2)c1[N+](=O)[O-]`, the concentration giving a half-maximal response (EC50) is 1300 nM.
Turning to `CN1CCN(C(=O)CCCN2C(=O)/C(=C/c3cccc(Br)c3)SC2=S)CC1`, the EC50 is > 6670 nM (inactive).
For the compound `COc1ccc(C[C@H]2NC[C@H](O)[C@H]2OC(C)=O)cc1`, the concentration for a half-maximal effect (EC50) was 44.7 nM.
`CCc1ccc(/C=C2/SC(=S)N(CCC(=O)Nc3cccnc3)C2=O)cc1`: the EC50 is > 6670 nM (inactive).
With `COc1ccc(C(C(=O)NC2CCCCC2)N(C(=O)CCl)c2cccc(Cl)c2)cc1` (stereo not drawn) the figure was 48.6 nM.
With `COc1cccc(N(C(=O)CCl)C(C(=O)NCCc2ccccc2)c2cccs2)c1` (stereo not drawn), the EC50 was 280 nM.
On to `CC(Oc1ccc(Cl)cc1Cl)c1nc(-c2ccc(NC(=O)c3cccnc3)cc2)no1` (stereo not drawn), for which the EC50 is > 6670 nM (inactive).
Regarding `O=C(Cc1ccc([N+](=O)[O-])cc1)N/N=C/c1ccc([N+](=O)[O-])o1`, the EC50 was > 6670 nM (inactive).
As for `CC[C@@]1(O)C(=O)OCc2c1cc1n(c2=O)Cc2cc3ccccc3nc2-1`, the 50% effective concentration (EC50) was 454 nM.
With `CCCCCCCN(C(=O)CCl)c1cccc(C)c1` the figure was 1090 nM.
Turning to `Cc1ccc(Nc2nc(N)nc(CCl)n2)c(C)c1`, the EC50 is 499 nM.
In the case of `Cc1ccc(N(C(=O)CCl)C(C(=O)NC2CCCCC2)c2cccnc2)cc1C` (stereo not drawn), the concentration for a half-maximal effect (EC50) is 75.6 nM.
As to `CC(C)C(=O)Nc1ccc(C(=O)NCc2cccnc2)cc1`, the EC50 is > 6670 nM (inactive).
As for `Cc1cccc(Nc2nc(N)nc(CCl)n2)c1C`, the concentration giving a half-maximal response (EC50) was 568 nM.
For `O=C(CCCCCN1C(=O)c2cccc3cccc(c23)C1=O)NCc1cccnc1`, the EC50 was > 6670 nM (inactive).
As for `Nc1nc(CCl)nc(Nc2cccc3ccccc23)n1`, the concentration giving a half-maximal response (EC50) was 660 nM.
With `Cc1ccc(/C=C2\SC(=S)N(CCCC(=O)N3CCOCC3)C2=O)cc1` the figure was > 6670 nM (inactive).
Regarding `COc1ccc(N(C(=O)CCl)C(C(=O)NCCc2ccccc2)c2cccs2)cc1Cl` (stereo not drawn), the concentration giving a half-maximal response (EC50) is 25.3 nM.
With `O=C(NCc1cccnc1)c1ccc(NC(=O)c2ccc([N+](=O)[O-])cc2)cc1` the figure was > 6670 nM (inactive); with `Cc1cccc(Nc2nc(N)nc(CCl)n2)c1`, 2180 nM; with `CCOc1ccc(CC(=O)Nc2ccc(NC(=O)c3ccco3)cc2)cc1OCC`, > 6670 nM (inactive).
Regarding `CC[C@H]1CN2CCc3cc(OC)c(OC)cc3[C@@H]2C[C@@H]1C[C@H]1NCCc2cc(OC)c(OC)cc21`, the EC50 is 9.12 nM.
With `COC(=O)[C@@H]1Cc2c([nH]c3ccccc23)C(C)(C)N1C(=O)CCl`, the EC50 is 1010 nM.
Turning to `C=CCOc1ccccc1CN(C(=O)CCl)c1ccc2c(c1)OCO2`, the concentration giving a half-maximal response (EC50) is 2430 nM.
With `CCOc1ccc(Nc2nc(N)nc(CCl)n2)cc1` the figure was 575 nM.
For the compound `COc1ccc(C(C(=O)NC2CCCCC2)N(C(=O)CCl)c2ccc(C)cc2)cc1` (stereo not drawn), the EC50 was 737 nM.
Regarding `Cc1ccc(C2CC(c3cccs3)=NN2C(=O)CCl)cc1` (stereo not drawn), the half-maximal effective concentration (EC50) is 1420 nM.
With `COc1ccc(/C=N/NC(=O)c2[nH]c3ccc(Br)cc3c2-c2ccccc2)cc1` the figure was 134 nM; with `O=C1SC(Cc2ccccc2)C(=O)N1c1ccccc1` (stereo not drawn), > 6670 nM (inactive).
On to `O=S(=O)(c1ccc2c(c1)C(=NO)c1cc(S(=O)(=O)N3CCCCC3)ccc1-2)N1CCCCC1`, for which the EC50 is 2120 nM.
Regarding `Nc1nc(CCl)nc(Nc2ccc3ccccc3c2)n1`, the half-maximal effective concentration (EC50) is 182 nM.
With `C/C(=N\Nc1ncc(Cl)cc1Cl)c1ccccn1` the figure was 19.6 nM; with `O=C(CCl)N=c1sccn1Cc1ccccc1Cl`, 126 nM.
`Oc1ccccc1N=Nc1nc(-c2ccccc2)c(-c2ccccc2)[nH]1`: the EC50 was 378 nM.
For the compound `COc1ccc(N(C(=O)CCl)C(C(=O)NCCc2ccccc2)c2cccs2)cc1` (stereo not drawn), the EC50 is 447 nM.
With `CC[C@@]1(O)C(=O)OCc2c1cc1n(c2=O)Cc2cc3c(N)cccc3nc2-1`, the EC50 was 129 nM.
In the case of `C=C1C(=O)O[C@@H]2C[C@@H](C)[C@@H]3C=CC(=O)[C@@]3(C)[C@@H](OC(=O)CC(=O)O[C@H]3[C@@H]4C(=C)C(=O)O[C@@H]4C[C@@H](C)[C@@H]4C=CC(=O)[C@]43C)[C@H]12`, the EC50 is 32.4 nM.
Turning to `Cc1ccc(C(=O)Sc2cccccc2=O)cc1`, the EC50 is 55.4 nM.
As for `COc1ccc(-c2nnc(NC(=O)c3ccc(S(=O)(=O)N4CCc5ccccc5C4)cc3)o2)cc1`, the EC50 is > 6670 nM (inactive).
As to `Cc1ccccc1Nc1nc(N)nc(CCl)n1`, the EC50 was 1980 nM.
For `CC(=O)Nc1ccc(NC(=O)CN(c2cccc([N+](=O)[O-])c2)S(C)(=O)=O)cc1`, the EC50 is > 6670 nM (inactive).
As to `CCc1ccc(/C=C2\SC(=S)N(CCC(=O)NCCCN3CCOCC3)C2=O)cc1`, the EC50 is 4700 nM.
As for `O=C(N/N=C/c1cccnc1)c1ccc(NC(=O)C(c2ccccc2)c2ccccc2)cc1`, the EC50 was > 6670 nM (inactive).
With `O=C(NCc1cccnc1)c1ccc(NC(=O)c2cccc([N+](=O)[O-])c2)cc1`, the EC50 is > 6670 nM (inactive).
Turning to `CC[C@@]1(O)C(=O)OCc2c1cc1n(c2=O)Cc2cc3c(CN(C)C)c(O)ccc3nc2-1`, the EC50 was 820 nM.
